Read-outs that look alike come from different tables or passages of the source.
Key:
[1] = system: paclitaxel (PTX)-treated mice; test: Paclitaxel-induced peripheral neuropathy model; type: in vivo; details: for mechanical pain (mechanical hyperalgesia, Von frey hair test), chronic administration / thermal hyperalgesia (Hargreaves test), chronic administration: 8abd 5 and 10 mg/kg p.o., duloxetine 10 mg/kg, 16 days
human KOR [2] = molecular target: T1, human KOR (Homo sapiens, UniProt P41145); test: GloSensor assay, Gi-mediated cAMP inhibition in HEK-293T cells transfected with human KOR; type: cell-based; details: for G-Protein Bias factor (IC50 -Glosensor/- EC50 - Tango): KOR, GloSensor versus Tango;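 for agonist at KOR (pIC50): value taken from a statement in the text not a table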
Target sequence in this assay (P41145 whole entry): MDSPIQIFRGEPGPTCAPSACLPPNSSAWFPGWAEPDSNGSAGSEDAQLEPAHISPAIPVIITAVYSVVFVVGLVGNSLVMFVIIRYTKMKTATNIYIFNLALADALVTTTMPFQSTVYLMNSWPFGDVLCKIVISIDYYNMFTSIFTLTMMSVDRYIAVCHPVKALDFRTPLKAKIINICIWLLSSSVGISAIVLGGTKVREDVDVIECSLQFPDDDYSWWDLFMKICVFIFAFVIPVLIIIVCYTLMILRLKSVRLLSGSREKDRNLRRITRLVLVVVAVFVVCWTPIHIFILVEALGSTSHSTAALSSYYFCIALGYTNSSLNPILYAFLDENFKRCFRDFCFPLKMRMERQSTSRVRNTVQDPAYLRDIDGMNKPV

human KOR [3] = molecular target: T1, human KOR; test: β-arrestin2 Tango assay in HTLA cells transiently transfected with human KOR; type: cell-based; details: Table 2, KOR; read-out: B-arrestin Tango Assay (pEC50) (converted)
Target sequence in this assay (P41145 whole entry, added parts left off): as the sequence (P41145 whole entry) above

DOR = DOR (Homo sapiens, UniProt P41143); test: GloSensor assay at DOR; type: cell-based; details: given as Log IC50 (negative values)
DOR, sequence (P41143 whole entry): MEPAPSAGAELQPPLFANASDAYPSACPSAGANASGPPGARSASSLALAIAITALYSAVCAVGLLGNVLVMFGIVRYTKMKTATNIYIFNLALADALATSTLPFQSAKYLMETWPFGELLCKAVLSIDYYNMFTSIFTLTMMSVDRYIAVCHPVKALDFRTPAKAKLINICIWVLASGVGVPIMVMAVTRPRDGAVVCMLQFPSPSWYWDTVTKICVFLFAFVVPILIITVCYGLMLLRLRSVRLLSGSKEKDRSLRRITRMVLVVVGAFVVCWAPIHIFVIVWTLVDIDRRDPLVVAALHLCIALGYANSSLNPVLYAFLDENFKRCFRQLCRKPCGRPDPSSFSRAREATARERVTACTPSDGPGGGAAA

MOR = MOR (Homo sapiens, UniProt P35372); test: GloSensor assay at MOR; type: cell-based; details: given as Log IC50 (negative values)
MOR, sequence (P35372 whole entry): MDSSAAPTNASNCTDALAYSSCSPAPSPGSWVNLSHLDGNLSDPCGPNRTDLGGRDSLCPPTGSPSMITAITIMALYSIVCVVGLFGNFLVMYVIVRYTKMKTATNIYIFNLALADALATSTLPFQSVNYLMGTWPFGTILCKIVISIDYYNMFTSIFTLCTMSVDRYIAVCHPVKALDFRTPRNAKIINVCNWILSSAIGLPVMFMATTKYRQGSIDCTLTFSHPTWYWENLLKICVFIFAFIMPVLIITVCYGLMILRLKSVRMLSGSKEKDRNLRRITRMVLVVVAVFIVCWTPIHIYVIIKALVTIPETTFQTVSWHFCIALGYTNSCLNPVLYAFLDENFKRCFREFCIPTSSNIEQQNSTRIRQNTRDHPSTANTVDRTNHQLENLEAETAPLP

SD rats = test: Neuropathic pain induced by chronic constriction injury (CCI) of sciatic nerve; type: in vivo, rat
C57Bl/6 mice [4] = test: Hargreaves assay for thermal analgesia after intracerebroventricular administration; type: in vivo; details: 10 nmol
C57Bl/6 mice [5] = test: Tail flick assay for analgesia; type: in vivo
[6] = Table 2, KOR, read-out: GloSensor Assay (pIC50) (converted)
[7] = given as Log IC50 (negative values), agonist activity, inhibition of FSK-stimulated cAMP, read-out: GloSensor Assay (Log IC50) KOR (converted)
[8] = read-out: agonist at KOR (pIC50) (converted)
[9] = 8abd 10 mg/kg/day p.o., U50488 5 mg/kg/day i.p., 7 days, tested 16 hours after drug administration

| Structure (SMILES) | mechanical pain (mechanical hyperalgesia, Von frey hair test), chronic administration [1] | thermal hyperalgesia (Hargreaves test), chronic administration [1] | G-Protein Bias factor (IC50 -Glosensor/- EC50 - Tango) (human KOR [2]) | IC50 (human KOR [2]; [6]) [nM] | IC50 (human KOR [2]; [7]) [nM] | IC50 (human KOR [2]; [8]) [nM] | EC50 (human KOR [3]) [nM] | IC50 (DOR) [nM] | IC50 (MOR) [nM] | improvement in both pain behaviors relative to duloxetine ([1]; chronic administration) | CCI-induced thermal hyperalgesia, acute administration (SD rats; 8abd 10 mg/kg p.o., U50488 5 mg/kg i.p., Hargreaves) | CCI-induced mechanical pain, acute administration (SD rats; 8abd 10 mg/kg p.o., U50488 5 mg/kg i.p., von frey) | CCI-induced mechanical pain, sub-chronic administration (SD rats; [9]) | CCI-induced thermal hyperalgesia, sub-chronic administration (SD rats; [9]) | analgesic activity (paw withdrawal latency) (C57Bl/6 mice [4]) | tail flick latency time (C57Bl/6 mice [5]; 10 mg/kg or 5 mg/kg p.o., in comparison to vehicle treated mice) | duration of the analgesic effect (C57Bl/6 mice [5]; 8abd 5 and 10 mg/kg p.o., U50488 5 mg/kg i.p.) | analgesic effect in presence of selective KOR antagonist Norbinaltrophamine (NBN) (C57Bl/6 mice [5]; NBN 5 mg/kg i.p. (legend: 10 mg/kg i.p.)) |
| --- | --- | --- | --- | --- | --- | --- | --- | --- | --- | --- | --- | --- | --- | --- | --- | --- | --- | --- |
| CNCC[C@H](Oc1cccc2ccccc12)c1cccs1 [duloxetine, reference compound] | significantly improved | significantly improved |  |  |  |  |  |  |  |  |  |  |  |  |  |  |  |  |
| Clc1ccc(-c2c3c4[nH]c5ccccc5c4cc[n+]3cn2-c2ccc(Cl)cc2)cc1.[Cl-] [8adc, 1,2-Bis(4-chlorophenyl)-2,11-dihydrolmidazo[1′,5′:1,2]pyrido[3,4-b]indol-4-ium chloride] |  |  | 3.28 | 0.501 | 1.58 | < 31.6 | 955 | > 10000 | > 10000 |  |  |  |  |  |  |  |  |  |
| Fc1ccc(-n2c[n+]3ccc4c5ccccc5[nH]c4c3c2-c2ccc(Cl)cc2)cc1.[Cl-] [8add, 1-(4-Chlorophenyl)-2-(4-fluorophenyl)-2,11-dihydroimidazo[1′,5′:1,2]pyrido[3,4-b]indol-4-ium chloride] |  |  | 2.67 | 2.94 | 3.98 | < 31.6 | 1380 | > 10000 | > 10000 |  |  |  |  |  |  |  |  |  |
| Brc1ccc(-c2c3c4[nH]c5ccccc5c4cc[n+]3cn2-c2cccc(Br)c2)cc1.[Cl-] [8abe, 2-(3-Bromophenyl)-1-(4-bromophenyl)-2,11-dihydroimidazo[1′,5′:1,2]pyrido[3,4-b]indol-4-ium chloride] |  |  | 1.72 | 12.9 | 1.26 | < 31.6 | 676 | > 10000 | > 10000 |  |  |  |  |  |  |  |  |  |
| Fc1ccc(-n2c[n+]3ccc4c5ccccc5[nH]c4c3c2-c2ccc(Br)cc2)cc1.[Cl-] [8abd, 1-(4-Bromophenyl)-2-(4-fluorophenyl)-2,11-dihydrolmidazo[1′,5′:1,2]pyrido[3,4-b]indol-4-ium chloride] | significantly improved | significantly improved | 2.33 | 1.05 | 5.01 | < 31.6 | 224 | > 10000 | > 10000 | better improvement in both pain behaviors as compared to duloxetine | robustly inhibited | robustly inhibited | significantly blocked | significantly blocked | exhibited analgesic activity | significantly increased | comparable to U50488 | completely blocked |
